Measured values from the METLIN SMRT retention time set (Domingo-Almenara et al. 2019).

Assay: gradient 5% acetonitrile 3 min, to 50% in 2 min, to 85% in 15 min, held 3 min, 100 µL/min
Details: column: Zorbax Extend-C18 2.1 x 50 mm; eluents: water / acetonitrile, 0.1% formic acid
How it was run: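 Retention time was recorded from adduct peaks, which were picked computationally and each inspected manually. Pure standards ran in mixtures of ~100 molecules on HPLC coupled to a quadrupole time-of-flight mass spectrometer, in positive and negative ionization mode, through a Zorbax Extend-C18 column (2.1 × 50 mm, 1.8 μm) at 100 μL/min. Eluents were water and acetonitrile, each with 0.1% formic acid.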

| SMILES | RP-LC retention time |
| --- | --- |
| COc1cc(NC(=O)N2CCN(c3ccc(=O)n(-c4ccc(C)cc4)n3)CC2)cc(OC)c1OC | 749 s |
| CC(Cc1ccco1)NC(=O)Cn1cccc1-c1nnc(-c2ccccc2)o1 (configuration not stated) | 898 s |
| COCCNC(=O)CSc1nc(-c2ccccc2)[nH]c1-c1ccccc1 | 641 s |
| CNC(=O)N1CCCC(c2cccc(C(=O)NCc3ccc(N(C)C)cc3)c2)C1 (configuration not stated) | 607 s |
| CCOC(=O)N1CCN(C(=O)Cc2c(C)nn(-c3nc(-c4ccc(F)cc4)cs3)c2C)CC1 | 1010 s |
| Cc1cc(C)cc(NC(=O)C2CC(=O)N(CCc3c[nH]c4ccc(C)cc34)C2)c1 (configuration not stated) | 923 s |
| CN1C(=O)c2cccn2CC1C(=O)NCCc1c[nH]c2ccccc12 (configuration not stated) | 690 s |
| CCOC(=O)C1=C(C)N(CC(=O)N2CCCC2)c2ncnn2C1c1ccc(C)cc1 (configuration not stated) | 824 s |
| Cc1ccc(-n2cc3c(c(C(=O)NC(C)C)c2=O)CC(C)(C)CC3=O)cc1 | 932 s |
| Cc1ccc(CNC(=O)N2CC(c3nc(C)no3)C3(CCOCC3)C2)cc1 (configuration not stated) | 731 s |
| Cc1ccccc1-c1nc(-c2ccc3c(c2)oc(=O)n3C(C)C)no1 | 1270 s |
| c1cc(CN2CCCCC2c2nncn2CC2CC2)co1 (configuration not stated) | 561 s |
| Cc1cc(C)cc(Nc2c(-c3ccc(N4CCOCC4)cc3)nc3ncccn23)c1 | 719 s |
| Cc1cc2[nH]c(C(=O)Nc3cc(F)c(F)c(F)c3)c(CN(C)C)c2s1 | 743 s |
| Cn1c(=O)c(N2CCC(NC(=O)Nc3ccc4c(c3)OCO4)CC2)nc2ccccc21 | 809 s |
| O=C1NC2(CCN(C(=O)Nc3ccc(Cl)cc3)CC2)N=C1c1ccccc1 | 829 s |
| COc1ccc(CCC(=O)NC(C)C(=O)N2CCN(c3ccccn3)CC2)cc1 (configuration not stated) | 606 s |
| CCN1C(=O)CCc2cc(NS(=O)(=O)c3ccc(C(F)(F)F)cc3)ccc21 | 858 s |
| COc1ccc(C(=O)N2CCC3(C2)C(=O)N(C)c2ccccc23)c(OC)c1 (configuration not stated) | 759 s |
| Cc1ccc(S(=O)(=O)Nc2ccc(Cn3cncn3)cc2)cc1Cl | 760 s |
| CC1CCCN(S(=O)(=O)c2ccc(-n3cnc(C(=O)N4CCN(C)CC4)c3)nc2)C1 (configuration not stated) | 648 s |
| COc1cc(C(=O)Nc2nc3c(s2)Cc2c(Br)ccc(OC)c2-3)cc(OC)c1OC | 1170 s |
| O=S(=O)(Nc1ccc(F)cc1)c1ccc2c(c1)-c1oncc1CO2 | 866 s |
| CCOc1ccccc1NC(=O)c1sc(-c2cn(CC)c3ncccc23)nc1C | 1250 s |
| Cc1csc(NC(=O)C2CCN(S(=O)(=O)c3cc(-c4noc(C)n4)cs3)CC2)n1 | 829 s |

| SMILES | RP-LC retention time |
| --- | --- |
| COc1ccccc1NC(=O)CSc1cc(N2CCN(c3ccccc3OC)CC2)ncn1 | 1050 s |
| CCOc1ccc(NC(=O)N2CCC3(CC2)NC(=O)c2ccccc2N3C)cc1 | 781 s |
| COc1ccc(C2=NC3(CCN(C(=O)Nc4ccc(Cl)cc4)CC3)NC2=O)cc1 | 835 s |
| O=C(c1ccc(F)c(F)c1)N1CCCC(c2ccnc(-c3cccc(F)c3)n2)C1 (configuration not stated) | 1120 s |
| O=S(=O)(c1ccc(F)cc1)N1[C@H]2CC[C@@H]1c1cncnc1C2 | 709 s |
| O=C(Cn1cnc2nc(N3CCC(C(=O)NC4CC4)CC3)sc2c1=O)NC1CCc2ccccc21 (configuration not stated) | 670 s |
| COc1ccc2c(c1)C1(CCN(C(=O)NC3CCCCC3)C1)C(=O)N2C (configuration not stated) | 778 s |
| CCCCNC(=O)C(CC)n1nc(C)c2nn(-c3ccccc3)c(C)c2c1=O (configuration not stated) | 934 s |
| Cc1cccc(-c2csc3c(=O)n(CC(=O)OC(C)(C)C)cnc23)c1 | 1070 s |
| CCC(CC)NC(=O)C1Cn2cccc2C(=O)N1C (configuration not stated) | 661 s |
| Cc1nn(-c2ccc(-c3ccccc3)nn2)c(C)c1S(=O)(=O)N1CCCC(C)C1 (configuration not stated) | 1170 s |
| O=C(c1ccccc1F)N1CCC(c2nc(-c3ccccc3)no2)C1 (configuration not stated) | 911 s |
| CN1C(=O)NC2(CCN(C(=O)c3cccs3)CC2)C1=O | 561 s |
| O=C(C1=CN(c2cccc(Br)c2)c2cc(F)ccc2S1(=O)=O)N1CCCC1 | 863 s |
| O=C1CC(c2noc(CN3CCN(c4ccccn4)CC3)n2)CN1c1ccc(F)cc1 (configuration not stated) | 576 s |
| CNS(=O)(=O)c1cccnc1Nc1ccccc1 | 865 s |
| CN1C(=O)c2cc(C(=O)NC3CCN(Cc4ccccc4)CC3)nn2CC1(C)C(=O)NC1CCCC1 (configuration not stated) | 610 s |
| CCN1C(=O)c2cccnc2Sc2cc(CNC(=O)c3ccc(OC)c(F)c3)ccc21 | 763 s |
| O=C(NCc1ccco1)c1cc2c(=O)n(Cc3ccccc3)ccc2s1 | 822 s |
| Cc1cc(-c2nnc(C3CCC3)o2)c(C)n1CC(=O)NCc1cccc(C(F)(F)F)c1 | 937 s |
| CCCCOc1ccc(NC(=O)c2cc(=O)c3cc(C)cc(C)c3o2)c2cccnc12 | 838 s |
| COc1ccccc1OCCNC(=O)C1CC(=O)N(c2n[nH]c3cccc(F)c23)C1 (configuration not stated) | 688 s |
| CC(=O)c1cccc(NC(=O)Cn2cccc2-c2nc(-c3ccc4c(c3)OCO4)no2)c1 | 951 s |
| CCCN1CCN(C(=O)C2CCN(c3nc4cccnc4s3)CC2)CC1 | 574 s |
| CC(C)n1cnc(S(=O)(=O)N2CCC(C(=O)Nc3ccc(F)cc3)CC2)c1 | 740 s |

Next, values leading:

| RP-LC retention time | SMILES |
| --- | --- |
| 998 s | CCOC(=O)Cn1cnc2c(-c3ccc(Br)cc3)csc2c1=O |
| 663 s | COC(=O)c1c(C)[nH]c(C(=O)N2CCC(CC(=O)NC(C)C)CC2)c1C |
| 678 s | CCN1C(=O)c2c(C(=O)N3CCOCC3)ncn2CC1(C)C(=O)NCc1ccc(F)cc1 (configuration not stated) |
| 696 s | CCC(=O)Nc1ccc(CCc2nc3ccc(C(=O)NCCC4=CCCCC4)cc3[nH]2)cc1 |
| 970 s | COc1cccc(Cn2c(C(=O)N3CCC(C(=O)NCc4ccc(C)o4)CC3)cc3ccsc32)c1 |
| 838 s | COc1ccccc1CCC(=O)N1CCN(c2cc(-c3cccs3)[nH]n2)CC1 |
| 630 s | Cc1noc(C)c1CCC(=O)N1CCc2nn(CC#N)c(=O)n2CC1 |
| 728 s | CCc1ccc(NC(=O)N2C[C@@H](F)C[C@H]2C(=O)N2CCCCC2)cc1 |
| 720 s | Cc1c(CNCc2ccco2)c(C(=O)O)c(C)n1Cc1ccccc1Cl |
| 908 s | COc1ccc(-c2nnc(-c3ccccc3)o2)cc1S(=O)(=O)N1CCCC1 |
| 780 s | O=C(Cc1ccc(Br)cc1)NC1CCN(c2cc(-c3ccc(F)cc3)[nH]n2)C1 (configuration not stated) |
| 730 s | CC(C)S(=O)(=O)N1CCC(c2noc(-c3cccnc3)n2)C1 (configuration not stated) |
| 647 s | CCn1c(C(=O)NCCCN2CCCCC2)c(N2CCCC2=O)c2cc(F)ccc21 |
| 683 s | O=C(NCc1ccccc1)C1CCN(S(=O)(=O)c2ccc3[nH]c(=O)ccc3c2)CC1 |
| 669 s | CC1=C(C(=O)NCc2ccc3c(c2)OCO3)C2(CCN(Cc3ccccc3)CC2)OC1=O |
| 743 s | O=C(Nc1nc(CC(=O)N2CCCc3ccccc32)cs1)c1ccco1 |
| 853 s | CC1Cc2ccc(CNC(=O)NC(C)(C)C)cc2N1C(=O)c1ccccc1 (configuration not stated) |
| 553 s | CN(C)c1cc(N2CCCC(NC(=O)c3cccnc3)C2)ncn1 (configuration not stated) |
| 692 s | COc1ccc(NC(=O)C2CCN(C(=O)C3Sc4ccccc4NC3=O)CC2)cc1OC (configuration not stated) |

| RP-LC retention time | SMILES |
| --- | --- |
| 1170 s | O=S(=O)(c1cc(F)cc(F)c1)N1CCC(c2noc(-c3ccc(F)cc3)n2)CC1 |
| 617 s | Cc1c2cnn(-c3ccccc3)c(=O)c2c(C)n1C(C)C(=O)NCCN1CCCC1 (configuration not stated) |
| 802 s | CCN1C(=O)COc2ccc(-c3noc(CNC(=O)c4ccccc4)n3)cc21 |
| 798 s | Cc1ccsc1C(=O)N1CCC2(CC1)CC(N(C(=O)NC(C)C)C1CC1)CCO2 (configuration not stated) |
| 919 s | CCN(C(=O)c1cc2c(=O)oc3ccccc3c2n1C)c1ccccc1 |
| 1180 s | Cc1cc(OCC(=O)Nc2nc(-c3ccccc3)cs2)ccc1Cl |
| 836 s | O=C(CC1CCCCC1)NC1CCCN(c2ccc(=O)n(CC3CC3)n2)C1 (configuration not stated) |
| 797 s | COc1ccc(-c2cn3ccn(-c4ccc(C)cc4C)c(=O)c3n2)cc1OC |
| 947 s | CCN(CC)C(=O)CN(C)C(=O)c1cc2c(s1)N(CC1CC1)CCCC2 |
| 1280 s | Cc1nc(-c2ccccc2)sc1C(=O)Nc1nc(-c2ccc(F)cc2)c(C)s1 |
| 866 s | CCOC(=O)c1c(C)[nH]c(C(=O)N2CCCC(C(=O)NCCc3ccc(OCC)cc3)C2)c1C (configuration not stated) |
| 862 s | COC(=O)c1nnn(-c2cc(C)ccc2OC)c1C(=O)OC |
| 558 s | O=C(Cn1cnc2ccccc21)Nc1nc2c(s1)C(=O)CCC2 |
| 607 s | Cc1[nH]c(C(=O)N2CCCC(C(=O)NCCN3CCOCC3)C2)c(C)c1C(=O)OC(C)C (configuration not stated) |
| 632 s | CCC1CN2C=NC(N3CCN(C(=O)c4ccc(C)s4)CC3)=CC2=N1 (configuration not stated) |
| 918 s | Cc1nc(-c2cccc(-c3noc(CNC(=O)c4ccccc4)n3)c2)cs1 |
| 870 s | CC1(c2ccccc2)O[C@@H]2C[C@H]3[C@@H]4CCC5=CC(=O)C=C[C@]5(C)[C@@]4(F)[C@@H](O)C[C@]3(C)[C@]2(C(=O)CO)O1 (some centres not stated) |
| 982 s | O=C(Cn1cnc2c(sc3nc(-c4ccccc4)ccc32)c1=O)NCc1ccc(F)cc1 |
